Laboratory results: US6440440B1, “Biocidal benzylbiphenyl derivatives” (priority 1998, dated 2002)
Structures can show the parent of a compound that is named as a salt.

Legend:
Format in all cases: cell-based
Escherichia coli = assay: Primary bacteria screening; design: key: score: 3 = complete inhibition of growth, 2 = growth partially controlled; settings: test compound concentration 500 μMol in tryptose broth agar, 27° C.
Description: (§1) The stock solutions with the test compounds were pipetted into multiwell plates and mixed with warm tryptose broth agar (2.6%) in order to reach a test compound concentration of 500 μMol. The medium was allowed to cool and subsequently inoculated with the bacteria. Wells were placed in an incubator at 27° C. and a relative humidity of 70%. After sufficient growth of the untreated cultures, the test was evaluated.
(§2) 3: complete inhibition of bacterial growth
(§3) 2: bacterial growth partially controlled

Pseudomonas aeruginosa = assay: Primary bacteria screening; design: key: score: 3 = complete inhibition of growth, 2 = growth partially controlled; settings: test compound concentration 500 μMol in tryptose broth agar, 27° C.
Description: as §1, §2, §3

Debaryomyces hansenii = assay: Screening against yeasts; design: key: 3 = complete inhibition of growth, 2 = growth partially controlled; settings: test compound concentration 500 μM
Description: as §1, §2, §3
(§4) A number of compounds of formula (I) were also tested in a screening against certain The test conditions are the same as described in biological example C.1. The concentration of the test compound was also 500 μmol, and the scoring system used was also the same.
Debaryomyces hansenii (19)

Rhodotorula rubra = assay: Screening against yeasts; design: key: 3 = complete inhibition of growth, 2 = growth partially controlled; settings: test compound concentration 500 μmol
Description: as §1, §2, §3, §4

Sporobolomyces roseus = assay: Screening against yeasts; design: key: 3 = complete inhibition of growth, 2 = growth partially controlled; settings: test compound concentration 500 μmol
Description: as §1, §2, §3, §4
Sporobolomyces roseus (21)

Providencia rettgeri = assay: Poison plate assay, combinations with BAC; settings: BAC alone 80 μmol
Description: Biocidal activity against bacterial/yeast growth was determined with the poison plate assay. To obtain the required concentrations of the test compound, calculated amounts of stock solutions (DMSO) were pipetted into multi-well plates. Tryptose agar (except for Rhodotorula: PDA) was added aseptically and uniform distribution was obtained by shaking. Each plate was inoculated with a bacterial/yeast suspension. After incubation at 27° C. and 70% relative humidity, for a period long enough to allow complete growth of controls, percentage activity as compared to the control was scored.
Possible synergy was investigated using Limpel's formula (Richter, D. L., Pestic. Sci. 1987, 19: 309-315): [formula]
where EC is the expected additive response, or calculated activity, X is the observed percentage control when compound A is applied alone and Y is the observed percentage control when compound B is applied alone. Synergy was considered to occur when the observed effect, or measured activity, of a combination of both compounds was greater than the corresponding EC value.
The table C.7 to C.8 below enumerate the measured and calculated activities of BAC and compounds 20, 42 and 40 when tested as a single test compound or as a combination against Providencia rettgeri. BAC (benzalconium chloride) is a well-bacteride and was tested at a concentration of 40 and 80 μmol. Compounds 20, 40 and 42 were tested at a concentration of 10, 20, 40, 80 and 160 μmol. When a synergistic effect was observed, the “measured” and “calculated” activity are indicated with a bold typeface.

Molecule | E. coli (growth inhibition score) (Escherichia coli) | P. aeruginosa (growth inhibition score) (Pseudomonas aeruginosa) | Test yeast (19) Debaryomyces hansenii (score) (Debaryomyces hansenii) | Test yeast (20) Rhodotorula rubra (score) (Rhodotorula rubra) | Test yeast (21) Sporobolomyces roseus (score) (Sporobolomyces roseus) | Measured activity (Providencia rettgeri) [%]
Cl.Cl.Fc1ccc(-c2ccc(C(c3ccccc3)C3CCN(C4CCNCC4)CC3)cc2)cc1.O (racemic) [Co. No. 7, (±)-4-[[4′-fluoro(1,1′-biphenyl)-4-yl]phenylmethyl](1,4′-bipiperidine)dihydro-chloride.monohydrate] | 3 | 3 | 3 | 2 | 3 | –
CN(C)CCC1CCN(CCC(O)(c2ccc(-c3ccccc3)cc2)c2ccc(Cl)cc2Cl)CC1.Cl.Cl (racemic) [Co. No. 34, (±)-α-[(1,1 ′-biphenyl)-4-yl]-a-(2,4-dichlorophenyl)-4-[2-(dimethylamino)ethyl]-1-piperidine-propanol dihydrochloride] | 1 | 1 | – | – | – | –
CN(C)CCCN(C)CCC(c1ccccc1)c1ccc(-c2ccccc2)cc1 (racemic) [Co. No. 38, (±)-N-[3-[(1,1′-biphenyl)-4-yl]-3-phenylpropyl]-N,N′,N′-trimethylpropanediamine] | 1 | 1 | – | – | – | –
CNCCCN(C)CCCN(C)C(c1ccccc1)c1ccc(-c2ccccc2)cc1 (racemic) [Co. No. 52, (±)-N-[[(1,1′-biphenyl)4-yl]phenylmethyl]-N,N′-dimethyl-N′-[3-(methylamino)propyl]-1,3-propanediamine trihydrochloride] | 3 | 1 | 3 | 3 | 3 | –
CNCCNCCC(c1ccccc1)c1ccc(-c2ccccc2)cc1.Cl.Cl (racemic) [Co. No. 56, (±)-N-[3-([1,1′-biphenyl]-4-yl)-3-phenylpropyl]-N′-methyl-1,2-ethanediamine dihydrochloride] | 3 | 1 | – | – | – | –
Cl.Cl.c1ccc(-c2ccc(C(c3ccccc3)C3CCN(C4CCNCC4)CC3)cc2)cc1 (single isomer, unassigned) [compound 22] | 3 | 1 | 3 | 1 | 3 | –
c1ccc(-c2ccc(C(c3ccccc3)C3CCN(C4CCNCC4)CC3)cc2)cc1 (single isomer, unassigned) [compound 23] | 1 | 3 | 3 | 3 | 3 | –
NCCCNCCC(c1ccccc1)c1ccc(-c2ccccc2)cc1.NCCCNCCC(c1ccccc1)c1ccc(-c2ccccc2)cc1.O=C(O)C(O)C(O)C(=O)O.O=C(O)C(O)C(O)C(=O)O.O=C(O)C(O)C(O)C(=O)O (single isomer, unassigned) [compound 69] | 3 | 1 | – | – | – | –
NCCCN1CCC(C(c2ccccc2)c2ccc(-c3ccccc3)cc2)CC1.NCCCN1CCC(C(c2ccccc2)c2ccc(-c3ccccc3)cc2)CC1.O.O.O=C(O)C(O)C(O)C(=O)O.O=C(O)C(O)C(O)C(=O)O.O=C(O)C(O)C(O)C(=O)O (single isomer, unassigned) [compound 84] | 3 | 3 | – | – | – | –
CC(C)O.Cl.Cl.Fc1ccc(C(=C2CCN(C3CCNCC3)CC2)c2ccc(-c3ccccc3)cc2)cc1 [Co. No. 2, 4-[[(1,1′-biphenyl)-4-yl](4-fluorophenyl)methylen](1,4′-bipiperidine)dihydrochloride 2-propanolate (1:1)] | 3 | 1 | – | – | – | –
Cl.Cl.NCCCN1CCC(C(c2ccccc2)c2ccc(-c3ccccc3)cc2)CC1.O.O.O.O (centres unmarked) [Co. No. 78, (A)-4-[([1,1′-biphenyl]-4-yl)phenylmethyl]-1-piperidinepropanamine dihydrochloride tetrahydrate] | 3 | 3 | – | – | – | –
Fc1ccc(C(=C2CCN(C3CCNCC3)CC2)c2ccc(-c3ccc(F)cc3)cc2)cc1.O=C(O)/C=C/C(=O)O.O=C(O)/C=C/C(=O)O [compound 1] | 3 | 1 | – | – | – | –
Cl.Cl.c1ccc(C(=C2CCN(C3CCNCC3)CC2)c2ccc(-c3ccccc3)cc2)cc1 [compound 3] | 1 | 1 | – | – | – | –
Cl.Fc1ccc(-c2ccc(C(=C3CCN(C4CCNCC4)CC3)c3ccccc3)cc2)cc1 [compound 5] | 2 | 1 | – | – | – | –
Cl.Cl.Fc1ccc(-c2ccc(C(c3ccc(Cl)cc3)C3CCN(C4CCNCC4)CC3)cc2)cc1 (centres unmarked) [compound 8] | 3 | 3 | – | – | – | –
O=S(=O)(O)c1ccc(-c2ccc(C(c3ccc(S(=O)(=O)O)cc3)C3CCN(C4CCNCC4)CC3)cc2)cc1 (centres unmarked) [compound 10] | 1 | 1 | – | – | – | –
CN(C)CCCN1CCC(N2CCC(C(c3ccccc3)c3ccc(-c4ccccc4)cc3)CC2)CC1.Cl.Cl.Cl (centres unmarked) [compound 15] | 1 | 1 | – | – | – | –

Molecule | E. coli (growth inhibition score) (Escherichia coli) | P. aeruginosa (growth inhibition score) (Pseudomonas aeruginosa) | Test yeast (19) Debaryomyces hansenii (score) (Debaryomyces hansenii) | Test yeast (20) Rhodotorula rubra (score) (Rhodotorula rubra) | Test yeast (21) Sporobolomyces roseus (score) (Sporobolomyces roseus) | Measured activity (Providencia rettgeri) [%]
CN1CCC(N2CCC(C(c3ccccc3)c3ccc(-c4ccccc4)cc3)CC2)CC1 (centres unmarked) [compound 19] | 1 | 1 | – | – | – | –
CN(C)CCC1CCN(CC=C(c2ccccc2)c2ccc(-c3ccccc3)cc2)CC1.Cl.Cl [compound 24] | 1 | 1 | – | – | – | –
CN(C)CCC1CCN(CCC(c2ccccc2)c2ccc(-c3ccccc3)cc2)CC1.Cl.Cl (centres unmarked) [compound 28] | 1 | 1 | – | – | – | –
CN(C)C1CCN(CCC(c2ccccc2)c2ccc(-c3ccccc3)cc2)CC1 (centres unmarked) [compound 32] | 1 | 1 | – | – | – | –
CN(C)CCCN(C)CC=C(c1ccccc1)c1ccc(-c2ccccc2)cc1 [compound 35] | 3 | 1 | – | – | – | –
CN(C)CCCNCC=C(c1ccccc1)c1ccc(-c2ccccc2)cc1 [compound 36] | 1 | 1 | – | – | – | –
CN(C)CCNCC=C(c1ccccc1)c1ccc(-c2ccccc2)cc1 [compound 37] | 1 | 1 | – | – | – | –
CC(C)O.Cl.Cl.Cl.O.c1ccc(-c2ccc(C(c3ccccc3)C3CCN(C4CCN(C5CCNCC5)CC4)CC3)cc2)cc1 (centres unmarked) [compound 44] | 3 | 1 | – | – | – | –
Cl.c1ccc(-c2ccc(C(c3ccccc3)N3CCC(N4CCCCC4)CC3)cc2)cc1 (centres unmarked) [compound 45] | 1 | 1 | – | – | – | –
CN(C1CCN(C2CCNCC2)CC1)C(c1ccccc1)c1ccc(-c2ccccc2)cc1.O.O (centres unmarked) [compound 48] | 1 | 1 | – | – | – | –
CN(CCCN)CCCNC(c1ccccc1)c1ccc(-c2ccccc2)cc1.O=C(O)C(=O)O.O=C(O)C(=O)O.O=C(O)C(=O)O (centres unmarked) [compound 53] | 3 | 1 | – | – | – | –
CN(C)CCCN(C)CCCN(C)C(c1ccccc1)c1ccc(-c2ccccc2)cc1.Cl.Cl.Cl.O (centres unmarked) [compound 54] | 3 | 1 | – | – | – | –
NCCCNCCC(c1ccccc1)c1ccc(-c2ccccc2)cc1.NS(=O)(=O)O.NS(=O)(=O)O (centres unmarked) [compound 67] | 3 | 2 | – | – | – | –
CN(CCN)CCC(c1ccccc1)c1ccc(-c2ccccc2)cc1.O=c1[nH]sc2ccccc12 (centres unmarked) [compound 73] | 3 | 3 | – | – | – | –
CN(C1CCNCC1)C1CCN(CCC(c2ccccc2)c2ccc(-c3ccccc3)cc2)CC1.Cl.Cl.Cl.O.O.O (centres unmarked) [compound 89] | 3 | 1 | – | – | – | –
benzalconium chloride [BAC, reference compound] | – | – | – | – | – | 100
